From patent US6664260B2, “Heterocyclic ether substituted imidazoquinolines” (3M Innovative Properties Company, priority 2000, dated 2003) come the findings set out here.

Each structure is given as a SMILES string. Where a name gives a salt, the structure may show the parent alone.

Data set [1] concerns interferon (α). The data set can be described thus: Cytokine Induction in Human Cells: interferon (α) secreted by PBMCs, ELISA. In kind it is cell-based. More on the design: key to Lowest Effective Concentration (μM) Interferon: A “*” indicates that no induction was seen at any of the tested concentrations; generally the highest tested concentration was 10 or 30 μM. To be noted: incubated 18 to 24 hours, lowest concentration found to induce interferon; for minimal effective concentration: PBMC. The text has this: (§1) An in vitro human blood cell system is used to assess cytokine induction. Activity is based on the measurement of interferon and tumor necrosis factor (α) (IFN and TNF, respectively) secreted into culture media as described by Testerman et. al. In “Cytokine Induction by the Immunomodulators Imiquimod and S-27609”, Journal of Leukocyte Biology, 58, 365-372 (September, 1995).
(§2) Whole blood from healthy human donors is collected by venipuncture into EDTA vacutainer tubes. Peripheral blood mononuclear cells (PBMCs) are separated from whole blood by density gradient centrifugation using Histopaque®-1077. The PBMCs are washed twice with Hank's Balanced Salts Solution and then are suspended at 3-4×10^6 cells/mL in RPMI complete. The PBMC suspension is added to 48 well flat bottom sterile tissue culture plates (Costar, Cambridge, Mass. or Becton Dickinson Labware, Lincoln Park, N.J.) containing an equal volume of RPMI complete media containing test compound.
(§3) The compounds are solubilized in dimethyl sulfoxide (DMSO). The DMSO concentration should not exceed a final concentration of 1% for addition to the culture wells
(§4) The solution of test compound is added at 60 μM to the first well containing RPMI complete and serial 3 fold dilutions are made in the wells. The PBMC suspension is then added to the wells in an equal volume, bringing the test compound concentrations to the desired range (0.12 to 30 μM). The final concentration of PBMC suspension is 1.5-2×10^6 cells/mL. The plates are covered with sterile plastic lids, mixed gently and then incubated for 18 to 24 hours at 37° C. in a 5% carbon dioxide atmosphere.
(§5) Following incubation the plates are centrifuged for 5-10 minutes at 1000 rpm (˜200×g) at 4° C. The cell-free culture supernatant is removed with a sterile polypropylene pipet and transferred to sterile polypropylene tubes. Samples are maintained at −30 to −70° C. until analysis. The samples are analyzed for interferon (α) and for tumor necrosis factor (α) by ELISA.
Interferon (α) concentration is determined by ELISA using a Human Multi-Species kit from PBL Biomedical Laboratories, New Brunswick, N.J. Results are expressed in pg/mL.
(§6) The table below lists the lowest concentration found to induce interferon and the lowest concentration found to induce tumor necrosis factor for each compound.

For data set [2], the system named is tumor necrosis factor (α). The data set can be described thus: Cytokine Induction in Human Cells: tumor necrosis factor (α) secreted by PBMCs, ELISA. The following applies: incubated 18 to 24 hours, lowest concentration found to induce tumor necrosis factor; for minimal effective concentration: PBMC. More on the design: key to Lowest Effective Concentration (μM) Tumor Necrosis Factor: A “*” indicates that no induction was seen at any of the tested concentrations; generally the highest tested concentration was 10 or 30 μM. Type of data set: cell-based.
Source text: as §1, §2, §3, §4, §5
Tumor necrosis factor (α) (TNF)concentration is determined using ELISA kits available from Genzyme, Cambridge, Mass.; R&D Systems, Minneapolis, Minn.; or Pharmingen, San Diego, Calif. Results are expressed in pg/mL.
as §6
Background: ELISA stands for enzyme-linked immunosorbent assay.

As a reminder, the melting point is the temperature, or range, at which the solid turns liquid. Consider `Cc1nc2c(N)nc3c(c2n1CCOCCCc1cccnc1)CCCC3` [Example 37, 2-methyl-1-[2-(3-pyridin-3-ylpropoxy)ethyl]-6,7,8,9-tetrahydro-1H-imidazo[4,5-c]quinolin-4-amine], for which the melting point is 140 to 141 °C.
As usually defined, the minimal effective concentration is the lowest level tested that produced the effect sought. With `Nc1nc2ccccc2c2c1ncn2CCOCC#Cc1ccccn1` [Example 21, 1-(2-{[3-(Pyrid-2-yl)-2-propynyl]oxy}ethyl)-1H-imidazo[4,5-c]quinolin-4-amine trifluoroacetate], the minimal effective concentration worked out at 1.11 µM in data set [1] and 10 µM in data set [2].
In turn, `Nc1nc2ccccc2c2c1ncn2CCOCC#Cc1ccccn1` (as salt: trifluoroacetate) [Example 21, 1-(2-{[3-(Pyrid-2-yl)-2-propynyl]oxy}ethyl)-1H-imidazo[4,5-c]quinolin-4-amine trifluoroacetate] displayed a melting point of 129 to 131 °C.
`CC(Cn1cnc2c(N)nc3ccccc3c21)Oc1ccc2[nH]c3ccccc3c2c1` (stereo not drawn) [Example 29, 1-[2-(9H-carbazol-3-yloxy)propyl]-1H-imidazo[4,5-c]quinolin-4-amine trifluoroacetate]: the minimal effective concentration in data set [1] was determined as 1.11 µM. Besides, in data set [2], the “Lowest Effective Concentration (μM) Tumor Necrosis Factor” value is “*”.
Take `Nc1nc2ccccc2c2c1ncn2CCOCC#Cc1ccoc1` [Example 19, 1-(2-{[3-(Fur-3-yl)-2-propynyl]oxy}ethyl)-1H-imidazo[4,5-c]quinolin-4-amine trifluoroacetate]: the minimal effective concentration turned out to be 0.12 µM in data set [1] and 3.33 µM in data set [2].
`CC(C)C(COc1ccccn1)n1cnc2c(N)nc3ccccc3c21` (stereo not drawn) [Example 27, 1-{2-Methyl-1-[(pyrid-2-yloxy)methyl]propyl}-1H-imidazo[4,5-c]quinoline-4-amine trifluoroacetate] showed a minimal effective concentration in data set [1] of 1.11 µM. The “Lowest Effective Concentration (μM) Tumor Necrosis Factor” value in data set [2] is “*”.
Take `Nc1nc2ccccc2c2c1ncn2CCOCC#Cc1cncc2ccccc12` [Example 1, 1-(2-{[3-(Isoquinolin-4-yl)-2-propynyl]oxy}ethyl)-1H-imidazo[4,5-c]quinolin-4-amine]: the figures for the minimal effective concentration in data set [1] and in data set [2] were 0.12 µM and 3.33 µM, respectively.
Take `Nc1nc2ccccc2c2c1ncn2CCOCC#Cc1ccncc1` (as salt: trifluoroacetate) [Example 18, 1-(2-{[3-(Pyrid-4-yl)-2-propynyl]oxy}ethyl)-1H-imidazo[4,5-c]quinolin-4-amine bis(trifluoroacetate)]: the melting point was 135 °C (dec.).
`Nc1nc2ccccc2c2c1ncn2CCOCC#Cc1ccncc1` [Example 18, 1-(2-{[3-(Pyrid-4-yl)-2-propynyl]oxy}ethyl)-1H-imidazo[4,5-c]quinolin-4-amine bis(trifluoroacetate)]: the minimal effective concentration in data set [1] came out at 0.37 µM; in data set [2], 10 µM.
For `Nc1nc2ccccc2c2c1ncn2CCOCc1cccnc1` [Example 13, 1-[2-(Pyridin-3-ylmethoxy)ethyl]-1H-imidazo[4,5-c]quinolin-4-amine Hydrochloride], in that order: 0.37 µM and 1.11 µM.
In data set [1], `CC(Cn1cnc2c(N)nc3ccccc3c21)Oc1ncccc1[N+](=O)[O-]` (stereo not drawn) [Example 26] gave a minimal effective concentration of 1.11 µM. Moreover, the “Lowest Effective Concentration (μM) Tumor Necrosis Factor” value in data set [2] is listed as “*”.
On to `Nc1nc2ccccc2c2c1ncn2CCOCc1cn(Cc2ccccc2)nn1` (as salt: hydrochloride) [Example 10, 1-{2-[(1-Benzyl-1H-1,2,3-triazol-4-yl)methoxy]ethyl}-1H-imidazo[4,5-c]quinoline-4-amine hydrochloride], for which the melting point is 209 to 211 °C.
In the case of `CC(C)C(COc1ncccc1[N+](=O)[O-])n1cnc2c(N)nc3ccccc3c21` (stereo not drawn) [Example 23], the minimal effective concentration in data set [1] was found to be 1.11 µM. In addition, in data set [2], the “Lowest Effective Concentration (μM) Tumor Necrosis Factor” value was “*”.
In turn, `Nc1nc2ccccc2c2c1ncn2CCOCc1cccnc1` (as salt: hydrochloride) [Example 13, 1-[2-(Pyridin-3-ylmethoxy)ethyl]-1H-imidazo[4,5-c]quinolin-4-amine Hydrochloride] returned a melting point of 229 to 231 °C.
`Nc1nc2ccccc2c2c1ncn2CCOCCCc1cn[nH]c1` [Example 3, 1-{2-[3-(1H-Pyrazol-4-yl)propoxy]ethyl}-1H-imidazo[4,5-c]quinolin-4-amine]: the minimal effective concentration in data set [1] turned out to be 0.04 µM. Further, the “Lowest Effective Concentration (μM) Tumor Necrosis Factor” value in data set [2] is listed as “*”.
With `CC(C)C(COCc1csc2ccc(Cl)cc12)n1cnc2c(N)nc3ccccc3c21` (stereo not drawn) [Example 24], in data set [1], the “Lowest Effective Concentration (μM) Interferon” value is listed as “*”. In addition, the “Lowest Effective Concentration (μM) Tumor Necrosis Factor” value in data set [2] was “*”.
As to `Nc1nc2ccccc2c2c1ncn2CCOCCCc1cccnc1` [Example 8, 1-[2-(3-Pyridin-3-ylpropoxy)ethyl]-1H-imidazo[4,5-c]quinolin-4-amine Bis(trifluoroacetate)], the minimal effective concentration came to 0.04 µM in data set [1] and 0.12 µM in data set [2].
On to `Nc1nc2ccccc2c2c1ncn2CCOCc1cn(Cc2ccccc2)nn1` [Example 10, 1-{2-[(1-Benzyl-1H-1,2,3-triazol-4-yl)methoxy]ethyl}-1H-imidazo[4,5-c]quinoline-4-amine hydrochloride], for which the minimal effective concentration in data set [1] and in data set [2] was 1.11 µM throughout.
In data set [1], `CC(Cn1cnc2c(N)nc3ccccc3c21)OCc1csc2ccc(Cl)cc12` (stereo not drawn) [Example 25] registered a minimal effective concentration of 10 µM. Besides, the “Lowest Effective Concentration (μM) Tumor Necrosis Factor” value in data set [2] is reported as “*”.
Regarding `CC(Cn1cnc2c(N)nc3ccccc3c21)OCC1CCCO1` (stereo not drawn) [Example 22], the minimal effective concentration in data set [1] stood at 1.11 µM; in data set [2] it was 10 µM.
In the case of `Nc1nc2ccccc2c2c1ncn2CCOCC#Cc1ncccn1` [Example 17, 1-(2-{[3-(Pyrimidin-2-yl)-2-propynyl]oxy}ethyl)-1H-imidazo[4,5-c]quinolin-4-amine trifluoroacetate], the minimal effective concentration in data set [1] and in data set [2] was 0.37 µM throughout.
In data set [1], `Nc1nc2ccccc2c2c1ncn2CCOCc1cc2ccccc2o1` [Example 12, 1-[2-(Benzo[b]furan-2-ylmethoxy)ethyl]-1H-imidazo[4,5-c]quinolin-4-amine] displayed a minimal effective concentration of 1.11 µM. Moreover, the “Lowest Effective Concentration (μM) Tumor Necrosis Factor” value in data set [2] is recorded as “*”.
On to `Nc1nc2ccccc2c2c1ncn2CCOCC#Cc1csc(C=O)c1` [Example 20, 4-{3-[2-(4-Amino-1H-imidazo[4,5-c]quinolin-1-yl)ethoxy]-propyn-1-yl}thiophen-2-ylcarboxaldehyde trifluoroacetate], for which the figures for the minimal effective concentration in data set [1] and in data set [2] were 0.12 µM and 3.33 µM, respectively.
For `CCCCc1nc2c(N)nc3ccccc3c2n1CCOCCCc1cccnc1` [Example 35, 2-Butyl-1-[2-(3-pyridin-3-ylpropoxy)ethyl]-1H-imidazo[4,5-c]quinoline-4-amine], in that order: 0.01 µM and 0.12 µM.
For `Nc1nc2ccccc2c2c1ncn2CCOCCCc1cncnc1` [Example 9, 1-[2-(3-Pyrimidin-5-ylpropoxy)ethyl]-1H-imidazo[4,5-c]quinolin-4-amine], in that order: 0.12 µM and 3.33 µM.
